# Laboratory results taken from patent US20260193268A1, “TRICYCLIC PI3Ka INHIBITOR, PREPARATION METHOD THEREFOR, AND PHARMACEUTICAL USE THEREOF” (WIGEN BIOMEDICINE TECHNOLOGY (SHANGHAI) CO., LTD., priority 2022, published 2026).
# Read-outs that look alike come from different tables or passages of the source.
# Experiments:
# [1] = system: MCF-7 cells (with PI3Kα E545K mutation); assay: In vitro inhibition of MCF-7 cell proliferation (CellTiter-Lumi); format: cell-based
# How it was run: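 Growth IC50 derived from ATP luminescence (CellTiter-Lumi) after 144 h exposure of MCF-7 cells carrying PI3Kα E545K, plated 2000 cells/well and dosed with serial dilutions one day after seeding.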
# [2] = system: HCC1954 cells (with PI3Kα H1047R mutation); assay: In vitro inhibition of HCC1954 cell proliferation (CellTiter-Lumi); format: cell-based
# Procedure: Assay for In Vitro Inhibition of HCC1954 Cell Proliferation by Compounds of the Present Disclosure
# The growth of the cells was evaluated, and the IC50 for the inhibition of cell growth by the compounds was calculated.
# [3] = Homo sapiens, MCF7, 144 h, numeric values, read-out: Inhibitory activity against MCF-7 cells (IC50)
# [4] = Homo sapiens, HCC1954, 144 h, HCC1954 cells, 144 h, CellTiter-Lumi, numeric values, read-out: Inhibitory activity against HCC1954 cells (IC50)
# [5] = Homo sapiens, MCF7, 144 h, class symbols, read-out: Inhibitory activity against MCF-7 cells (IC50), class symbols
# [6] = Homo sapiens, HCC1954, 144 h, HCC1954 cells, 144 h, CellTiter-Lumi, class symbols, read-out: Inhibitory activity against HCC1954 cells (IC50), class symbols
SMILES,"IC50 [1, 3]","IC50 [2, 4]","IC50 [1, 5]","IC50 [2, 6]",other results
C=CC(=O)Nc1ccc(CN2CC3(C2)CN(c2ccc4c(c2)-c2nc(N5C(=O)OC[C@H]5C(F)F)cn2CCO4)C3)cc1 [Compound 40],0.034 µM,0.162 µM,–,–,–
NC/C=C/C(=O)Nc1ccc(N2CC(N3CCN(c4ccc5c(c4)-c4nc(N6C(=O)OC[C@H]6C(F)F)cn4CCO5)CC3)C2)cc1 [Compound 170],0.017 µM,0.077 µM,–,–,–
CCOP(=O)(OCC)OCNC(C)(C)C=C(C#N)C(=O)Nc1ccc(N2CC(N3CCN(c4ccc5c(c4)-c4nc(N6C(=O)OC[C@H]6C(F)F)cn4CCO5)CC3)C2)cc1 [Compound 331],–,–,< 0.05 µM,–,"IC50 ([2]; Homo sapiens, HCC1954, 144 h, read-out: Inhibitory activity against HCC1954 cells (IC50), class symbols): < 0.05 µM"
CC(C)(C=C(C#N)C(=O)Nc1ccc(N2CC(N3CCN(c4ccc5c(c4)-c4nc(N6C(=O)OC[C@H]6C(F)F)cn4CCO5)CC3)C2)cc1)N1CCC2(CC1)COC2 [Compound 312],–,–,< 0.05 µM,< 0.05 µM,–
CN(C1COC1)C(C)(C)C=C(C#N)C(=O)Nc1ccc(N2CC(N3CCN(c4ccc5c(c4)-c4nc(N6C(=O)OC[C@H]6C(F)F)cn4CCO5)CC3)C2)c(F)c1 [Compound 220],–,–,< 0.05 µM,< 0.05 µM,–
Cc1nc(-c2cn3c(n2)-c2cc(N4CCN(C5CN(c6ccc(NC(=O)C(C#N)=CC(C)(C)N(C)C7COC7)cc6)C5)CC4)ccc2OCC3)n(C(C)C)n1 [Compound 339],–,–,< 0.05 µM,< 0.05 µM,–
CC#CC(=O)Nc1ccc(N2CC(N3CCN(c4ccc5c(c4)-c4nc(N6C(=O)OC[C@H]6C(F)F)cn4CCO5)CC3)C2)cc1 [Compound 132],0.0033 µM,0.045 µM,–,–,–
N#CC(=CC1CC1)C(=O)Nc1ccc(N2CC(N3CCN(c4ccc5c(c4)-c4nc(N6C(=O)OC[C@H]6C(F)F)cn4CCO5)CC3)C2)cc1 [Compound 278],0.016 µM,0.042 µM,–,–,–
C=CC(=O)Nc1ccc2c(c1)CCN(CC#Cc1ccc3c(c1)-c1nc(N4C(=O)OC[C@H]4C(F)F)cn1CCO3)C2 [Compound 200],–,–,< 0.05 µM,0.05 to 0.1 µM,–
COCC#CC(=O)Nc1ccc(N2CC(N3CCN(c4ccc5c(c4)-c4nc(N6C(=O)OC[C@H]6C(F)F)cn4CCO5)CC3)C2)cc1 [Compound 168],0.0069 µM,0.0049 µM,–,–,–
CC(C)C=C(C#N)C(=O)Nc1ccc(N2CC(N3CCN(c4ccc5c(c4)-c4nc(N6C(=O)OC[C@H]6C(F)F)cn4CCO5)CC3)C2)c(F)c1 [Compound 226],–,–,< 0.05 µM,< 0.05 µM,–
N#CC(=CC1(N)CC1)C(=O)Nc1ccc(N2CC(N3CCN(c4ccc5c(c4)-c4nc(N6C(=O)OC[C@H]6C(F)F)cn4CCO5)CC3)C2)cc1 [Compound 213],–,–,< 0.05 µM,< 0.05 µM,–
CN(C1COC1)C(C)(C)C=C(C#N)C(=O)Nc1ncc(N2CC(N3CCN(c4ccc5c(c4)-c4nc(N6C(=O)OC[C@H]6C(F)F)cn4CCO5)CC3)C2)cn1 [Compound 292],–,–,< 0.05 µM,< 0.05 µM,–
C=CC(=O)N1CC[C@@H](C(=O)N2CC3(CCN(c4ccc5c(c4)-c4nc(N6C(=O)OC[C@H]6C(F)F)cn4CCO5)CC3)C2)C1 [Compound 21],0.023 µM,0.251 µM,–,–,–
C=CC(=O)N1CC[C@@H](CN2CC3(CCN(c4ccc5c(c4)-c4nc(N6C(=O)OC[C@H]6C(F)F)cn4CCO5)CC3)C2)C1 [Compound 23],0.186 µM,> 1 µM,–,–,–
CC1CN(C(C)(C)C=C(C#N)C(=O)Nc2ccc(N3CC(N4CCN(c5ccc6c(c5)-c5nc(N7C(=O)OC[C@H]7C(F)F)cn5CCO6)CC4)C3)cc2)CC(C)N1 (stereo partly shown) [Compound 309],–,–,< 0.05 µM,< 0.05 µM,–
C=CC(=O)Nc1ccc(N2CC(N3CC=C(c4ccc5c(c4)-c4nc(N6C(=O)OC[C@H]6C(F)F)cn4CCO5)CC3)C2)cc1 [Compound 103],0.002 µM,0.023 µM,–,–,–
CC(C)(C)C=C(C#N)C(=O)Nc1ccc(N2CC(N3CCN(c4cc(F)c5c(c4)-c4nc(N6C(=O)OC[C@H]6C(F)F)cn4CCO5)CC3)C2)cc1 [Compound 316],–,–,< 0.05 µM,< 0.05 µM,–
C=CC(=O)Nc1ccc(N2CCC(N3CCN(c4ccc5c(c4)-c4nc(N6C(=O)OC[C@H]6C(F)F)cn4CCO5)CC3)C2)cc1 (stereo partly shown) [Compound 28],0.018 µM,0.18 µM,–,–,–
CCC(C=C(C#N)C(=O)Nc1ccc(N2CC(N3CCN(c4ccc5c(c4)-c4nc(N6C(=O)OC[C@H]6C(F)F)cn4CCO5)CC3)C2)cc1)(CC)CC [Compound 389],–,–,< 0.05 µM,< 0.05 µM,–
C=CC(=O)N1CC(CN2CCC(N3CCN(c4ccc5c(c4)-c4nc(N6C(=O)OC[C@H]6C(F)F)cn4CCO5)CC3)CC2)C1 [Compound 64],0.033 µM,0.314 µM,–,–,–
CC(C)=CC(=O)CCC(=O)N1CCN(Cc2cc3nc(-c4cccc5[nH]ncc45)nc(N4CCOCC4)c3s2)CC1 [CNX1351],–,–,–,–,"IC50 ([1]; 144 h, numeric values, read-out: Inhibitory activity against MCF-7 cells (IC50)): 0.29 µM; IC50 ([2]; HCC1954 cells, 144 h, CellTiter-Lumi, numeric values, read-out: Inhibitory activity against HCC1954 cells (IC50)): 1.19 µM"

SMILES,"IC50 [1, 3]","IC50 [2, 4]","IC50 [1, 5]","IC50 [2, 6]",other results
C=CC(=O)Nc1cnc(N2CC(N3CCN(c4ccc5c(c4)-c4nc(N6C(=O)OC[C@H]6C(F)F)cn4CCO5)CC3)C2)cc1C [Compound 217],–,–,< 0.05 µM,< 0.05 µM,–
CC(C)(C=C(C#N)C(=O)Nc1cnc(N2CC(N3CCN(c4ccc5c(c4)-c4nc(N6C(=O)OC[C@H]6C(F)F)cn4CCO5)CC3)C2)nc1)N1CCC1 [Compound 265],–,–,< 0.05 µM,< 0.05 µM,–
CC(C)(C)OC(=O)NC1(C=C(C#N)C(=O)Nc2ccc(N3CC(N4CCN(c5ccc6c(c5)-c5nc(N7C(=O)OC[C@H]7C(F)F)cn5CCO6)CC4)C3)cc2)CC1 [Compound 326],–,–,< 0.05 µM,< 0.05 µM,–
CC(C)(C=C(C#N)C(=O)Nc1ccc(N2CC(N3CCN(c4ccc5c(c4)-c4nc(N6C(=O)OC[C@H]6C(F)F)cn4CCO5)CC3)C2)nn1)NC1COC1 [Compound 296],–,–,< 0.05 µM,< 0.05 µM,–
N#CC(=CC1(N)CC1)C(=O)Nc1ccc(N2CC(N3CCN(c4ccc5c(c4)-c4nc(N6C(=O)OC[C@H]6C(F)F)cn4CCO5)CC3)C2)c(F)c1 [Compound 235],–,–,< 0.05 µM,< 0.05 µM,–
CC(C)C=C(C#N)C(=O)Nc1ccc(N2CC(N3CCN(c4ccc5c(c4)-c4nc(N6C(=O)OC[C@H]6C(F)F)cn4CCO5)CC3)C2)cc1 [Compound 144],0.022 µM,0.055 µM,–,–,–
C=CC(=O)N1CC(N2CC(CN3CCN(c4ccc5c(c4)-c4nc(N6C(=O)OC[C@H]6C(F)F)cn4CCO5)CC3)C2)C1 [Compound 60],0.013 µM,0.174 µM,–,–,–
C=CC(=O)Nc1ccc(N2CC(N3CCN(c4ccc5c(c4)-c4nc(N6C(=O)OC[C@H]6C(F)F)cn4CCO5)CC3)C2)cn1 [Compound 121],0.0002 µM,0.003 µM,–,–,–
C=CC(=O)N1CCc2c1ccc(N1CC(N3CCN(c4ccc5c(c4)-c4nc(N6C(=O)OC[C@H]6C(F)F)cn4CCO5)CC3)C1)c2F [Compound 166],0.0012 µM,0.0094 µM,–,–,–
C#CC(=O)Nc1ccc(N2CC(N3CCN(c4ccc5c(c4)-c4nc(N6C(=O)OC[C@H]6C(F)F)cn4CCO5)CC3)C2)cc1 [Compound 152],0.0097 µM,0.049 µM,–,–,–
C=CC(=O)Nc1ccc(N2CC(/C=C/c3ccc4c(c3)-c3nc(N5C(=O)OC[C@H]5C(F)F)cn3CCO4)C2)cc1 [Compound 208],–,–,< 0.05 µM,0.05 to 0.1 µM,–
C=CC(=O)Nc1ccc(N2CC(N3CCN(c4ccc5c(c4)-c4nc(-c6nc(C)nn6C(C)C)cn4CCO5)CC3)C2)c(F)c1 [Compound 376],–,–,< 0.05 µM,< 0.05 µM,–
C=CC(=O)N1CCC(N2CCC(N3CCN(c4ccc5c(c4)-c4nc(N6C(=O)OC[C@H]6C(F)F)cn4CCO5)CC3)C2)CC1 (stereo partly shown) [Compound 89],0.041 µM,0.23 µM,–,–,–
C=CC(=O)Nc1ccc(N2CC(N3CCN(c4ccc5c(c4)-c4nc(N6C(=O)SC[C@H]6C(F)F)cn4CCO5)CC3)C2)cc1 [Compound 106],0.00014 µM,0.006 µM,–,–,–
CC(C)(C)C=C(C#N)C(=O)Nc1ccc(N2CC(N3CCN(c4ccc5c(c4)-c4nc(N6C(=O)OC[C@H]6C(F)F)cn4CCO5)CC3)C2)c(Cl)c1 [Compound 355],–,–,< 0.05 µM,< 0.05 µM,–
CC(C)(O)C=C(C#N)C(=O)Nc1ccc(N2CC(N3CCN(c4ccc5c(c4)-c4nc(N6C(=O)OC[C@H]6C(F)F)cn4CCO5)CC3)C2)c(F)c1 [Compound 230],–,–,< 0.05 µM,< 0.05 µM,–
CC(=O)NC(C)(C)C=C(C#N)C(=O)Nc1ccc(N2CC(N3CCN(c4ccc5c(c4)-c4nc(-c6nc(C)nn6C(C)C)cn4CCO5)CC3)C2)cc1 [Compound 375],–,–,< 0.05 µM,< 0.05 µM,–
C=CC(=O)Nc1ccc(N2CC(N3CCC4(c5ccc6c(c5)-c5nc(N7C(=O)OC[C@H]7C(F)F)cn5CCO6)CC4C3)C2)cc1 (stereo partly shown) [Compound 107],0.016 µM,–,–,–,"IC50 ([2]; Homo sapiens, HCC1954, 144 h, read-out: Inhibitory activity against HCC1954 cells (IC50)): 0.131 µM"
CC1(C=C(C#N)C(=O)Nc2ccc(N3CC(N4CCN(c5ccc6c(c5)-c5nc(N7C(=O)OC[C@H]7C(F)F)cn5CCO6)CC4)C3)c(F)c2)COC1 [Compound 233],–,–,< 0.05 µM,< 0.05 µM,–
C=CC(=O)N1CCc2sc(N3CC(N4CCN(c5ccc6c(c5)-c5nc(N7C(=O)OC[C@H]7C(F)F)cn5CCO6)CC4)C3)nc2C1 [Compound 155],0.0051 µM,0.044 µM,–,–,–
CC(C)(C=C(C#N)C(=O)Nc1ccc(N2CC(N3CCN(c4ccc5c(c4)-c4nc(N6C(=O)OC[C@H]6C(F)F)cn4CCO5)CC3)C2)cc1)N1CCNCC1 [Compound 306],–,–,< 0.05 µM,< 0.05 µM,–
CN(C)C(C)(C)C=C(C#N)C(=O)Nc1ccc(N2CC(N3CCN(c4ccc5c(c4)-c4nc(N6C(=O)OC[C@H]6C(F)F)cn4CCO5)CC3)C2)cc1 [Compound 150],0.035 µM,0.121 µM,–,–,–
